This passage reports logP and logD results from the SangsterLogP compilation.

Conditions in one data set: not given
What is called logP is the decadic logarithm of the partition coefficient of the neutral form, usually between octanol and water. A higher logP goes with a more lipophilic compound. In the case of `Clc1ccccc1-c1nnc(-c2ccccc2Cl)nn1`, the logP was 3.1. The same measure, in the same setting: the result for `CC1(C)CC/C(=C\c2ccc(Cl)cc2)C1(O)Cn1cncn1` (configuration not stated) reads 3.29; that for `COC(=O)C(C)N(C(=O)c1ccco1)c1c(C)cccc1C` (racemic), 2.7; that for `CC(C)N(Cc1ccccc1)C(=O)C(C)(C)C`, 3.

Compound `COP(=S)(OC)Oc1ccc(C#N)cc1` had a logP of 2.65. The same measure, in the same setting: as for `CCOC(=O)c1cn2nc(OP(=S)(OCC)OCC)cc2nc1C`, the figure is 3.8; as for `O=C(Nc1ccc(Cl)cc1C(O)c1ccccc1)c1ccncc1` (configuration not stated), 3.13. `CCOC1Oc2ccc(OS(C)(=O)=O)cc2C1(C)C` (configuration not stated) yielded a logP of 2.7. As for `CCNP(=S)(OC)O/C(C)=C/C(=O)OC(C)C` (configuration not stated), the logP is 3.82. For `CC1=NNC(=O)N(/N=C/c2cccnc2)C1`, the logP was -0.18. The same measure, in the same setting: as for `O=[N+]([O-])c1ccc(NS(=O)(=O)c2ccc(Cl)c(C(F)(F)F)c2)c(Cl)c1`, the figure is 2.4; as for `NC(=O)c1nc(-c2ccccc2)n(-c2ccc(Cl)c(COCC(F)(F)C(F)(F)F)c2)n1`, 3.27. The compound `CCOC(=O)C1(C)OC(=O)N(c2cc(Cl)cc(Cl)c2)C1=O` (configuration not stated) came in with a logP of 3.3.

`C/C=C/C(=O)Oc1c(C(C)CCCCCC)cc([N+](=O)[O-])cc1[N+](=O)[O-]` (configuration not stated) gave a logP of 4.54.

`CCC(=O)Nc1ccc(Cl)c(Cl)c1` gave a logP of 3.3. With `CCSC(C)CC1CC(=O)C(/C(CC)=N/OC/C=C/Cl)=C(O)C1` (configuration not stated), the logP is 4.19. Regarding `O=C1C2CC=CCC2C(=O)N1SC(Cl)(Cl)Cl` (configuration not stated), the logP was determined as 2.78.

The compound `Cc1cnc(C2=NC(C)(C(C)C)C(=O)N2)c(C(=O)O)c1` (configuration not stated) yielded a log partition coefficient (logP) of 0.39. `CC1(C)CCC(Cc2ccc(Cl)cc2)C1(O)Cn1cncn1` (configuration not stated) gave a lipophilicity (logP) of 3.93. As for `COCCN(C(=O)CCl)c1c(C)cccc1C`, the logP is 2.2. Compound `CCOCCOC(=O)C(C)Oc1ccc(Oc2ncc(C(F)(F)F)cc2Cl)cc1` (configuration not stated) came in with a logP of 4.33.

In turn, `CCOP(=O)(SC(C)CC)SC(C)CC` (configuration not stated) registered a logP of 3.9. For `O=c1oc2ccccc2c(O)c1C1CC(c2ccc(OCc3ccc(C(F)(F)F)cc3)cc2)Cc2ccccc21` (configuration not stated), the logP turned out to be 4.7.

`CN(C)C(=O)Nc1ccc(-n2nc(C(C)(C)C)oc2=O)c(Cl)c1` displayed a logP of 2.51. For the compound `CCOc1ccc(C2(C(=O)OC(C#N)c3cccc(Oc4ccccc4)c3)CC2(Cl)Cl)cc1` (configuration not stated), the logP turned out to be 4.19.

The compound `C=CCCCOC(=O)C(CC)N(Cc1ccco1)C(=O)n1ccnc1` (configuration not stated) yielded a logP of 3. The compound `CC1(C)[C@H](C(=O)O[C@H](C#N)c2cccc(Oc3ccccc3)c2)[C@@H]1C(Br)C(Br)(Br)Br` (some centres not stated) displayed a logP of 5. `CCSCCSP(=S)(OC)OC` came in with a log partition coefficient (logP) of 3.46. Turning to `CC(C)OC(=O)C(C(=O)OC(C)C)=C1SCCS1`, the logP is 3.3.

In the case of `CCOc1nc(C(Cl)(Cl)Cl)ns1`, the logP worked out at 3.37.

`COC(=O)c1c(Cl)c(Cl)c(C(=O)OC)c(Cl)c1Cl` gave a logP of 4.28. `CCSCCSP(=O)(OC)OC` gave a lipophilicity (logP) of 1.32. `CCC1OCC(COc2ccc(Oc3ccccc3)cc2)O1` (configuration not stated) had a lipophilicity (logP) of 4.3.

Turning to `Nc1cnn(-c2ccccc2)c(=O)c1Cl`, the log partition coefficient (logP) was 1.19.

With `CC1COc2ccccc2N1C(=O)C(Cl)Cl` (configuration not stated), the logP stood at 2.7. Take `CCCCC(CC)N1C(=O)C2C3C=CC(C3)C2C1=O` (configuration not stated): the logP is 3.8. The compound `C[C@@H](Oc1ccc(Oc2ccc(C#N)cc2F)cc1)C(=O)O` returned a logP of 3.31.

Conditions in the next data set: not given
The source holds these as a separate data set.
Compound `Cc1ccc2nc3sc(=O)sc3nc2c1` yielded a logP of 3.78. Take `CC1(C)OC(c2ccco2)CN1C(=O)C(Cl)Cl` (configuration not stated): the logP came out at 2.12. Still for that read-out and setting: the result for `CCN(Cc1c(F)cccc1Cl)c1c([N+](=O)[O-])cc(C(F)(F)F)cc1[N+](=O)[O-]` reads 5.45; that for `C/C(=N\C#N)N(C)Cc1ccc(Cl)nc1`, 0.8; that for `C#CCOC(=O)[C@@H](C)Oc1ccc(Oc2ncc(Cl)cc2F)cc1`, 3.9.

Compound `CCOC(=O)Cn1c(=O)sc2cccc(Cl)c21` came in with a logP of 2.5.

On to `CCCN(CCC)C(=O)SCc1ccccc1`, for which the lipophilicity (logP) was 4.65. As to `O=C(NC(=O)c1c(F)cccc1F)Nc1cc(Cl)c(OC(F)(F)C(F)C(F)(F)F)cc1Cl` (configuration not stated), the logP turned out to be 5.12. `CCCCCCCCn1sccc1=O` registered a logP of 2.45.

In turn, `C#CCC1=C(C)C(OC(=O)C2C(C=C(C)C)C2(C)C)CC1=O` (configuration not stated) yielded a logP of 4.49. Compound `COc1ccsc1CN(C(=O)CCl)c1c(C)cccc1C` showed a log partition coefficient (logP) of 3.53. As to `[O-][n+]1nc(-n2ccnc2)nc2ccc(Cl)cc21`, the logP is 2.04.

With `COC(=O)c1c(C(F)F)nc(C(F)(F)F)c(C2=NCCS2)c1CC(C)C`, the log partition coefficient (logP) was 3.89. `O=C(Nc1ccccc1)Nc1ccnc(Cl)c1` came in with a logP of 3.2. `CCCN(CCC)c1c([N+](=O)[O-])cc(C(F)(F)F)c(N)c1[N+](=O)[O-]` had a logP of 4.1.

Regarding `CC1(C)[C@H](C(=O)O[C@H](C#N)c2cccc(Oc3ccccc3)c2)[C@@H]1/C=C\C(=O)OC(C(F)(F)F)C(F)(F)F`, the logP is 5.26. In the case of `CCS(=O)(=O)Oc1ccc2c(c1)C(C)(C)CO2`, the logP came to 2.41. Still for that read-out and setting: the result for `FC(F)C(F)(F)OCC(Cn1cncn1)c1ccc(Cl)cc1Cl` (configuration not stated) reads 3.53; that for `Clc1ccc(C2(Cn3cncn3)CC(Br)CO2)c(Cl)c1` (configuration not stated), 3.24. Consider `CC1=C(C)S(=O)(=O)CCS1(=O)=O`, for which the logP is -0.17. For `COCC(=O)N(c1c(C)cccc1C)N1CCOC1=O`, the logP came out at 0.73. On the same count and under the same terms, as for `CNC(=O)CSP(=O)(OC)OC`, the figure is -0.75; as for `CCCCCC(C)OC(=O)COc1ccc(Cl)c2cccnc12` (configuration not stated), 5.03; as for `CC(C)(C)C(O)/C(=C\c1ccc(Cl)cc1)n1cncn1` (configuration not stated), 3.67. The same measure, in the same setting: the result for `CCOP(=S)(OCC)OC(Cl)C(Cl)(Cl)Cl` (configuration not stated) reads 4.59; that for `CC(Oc1ccc(Oc2cnc3cc(Cl)ccc3n2)cc1)C(=O)OCC1CCCO1` (configuration not stated), 4.32.

Staying with this data set, now noted: pH 2.0.
Broadly, the logD is the decadic logarithm of the distribution of all forms, ionised or not, between an organic phase and buffer at a given pH. Read a high logD as higher lipophilicity. In turn, `COc1cc(OC)nc(NC(=O)NS(=O)(=O)N(C)S(C)(=O)=O)n1` came in with a logD of 1.63.

Staying with this data set, now noted: pH 5.0.
`CCS(=O)(=O)c1cccnc1S(=O)(=O)NC(=O)Nc1nc(OC)cc(OC)n1` had a logD of 0.29. Compound `Cc1cc(C2CC2)nc(Nc2ccccc2)n1` returned a logD of 3.9.

Staying with this data set, now noted: pH 5.6.
In the case of `O=c1c2cc(F)ccc2nc(-n2cncn2)n1-c1ccc(Cl)cc1Cl`, the logD was found to be 3.24.

Staying with this data set, now noted: pH 6.1.
Compound `Cc1cc(C)nc(Nc2ccccc2)n1` gave a logD of 2.84.

Staying with this data set, now noted: pH 6.5.
In turn, `COc1ccc(C(O)(c2cncnc2)C2CC2)cc1` (configuration not stated) yielded a logD of 1.91.

`CNC(=O)ON=C(C)C(C)S(C)(=O)=O` (configuration not stated) displayed a logD of 1.11.

Still in this data set, the particulars now being: pH 7.0.
As for `CC(C1CC1)C(O)(Cn1cncn1)c1ccc(Cl)cc1` (configuration not stated), the logD came to 2.91. In turn, `CN1CSC(=S)N(C)C1` returned a logD of 1.4.

`CCOC(=O)CSc1nc(C(C)(C)C)nn1C(=O)N(C)C` displayed a logD of 2.69.

`CC(C)C(O)(c1ccc(OC(F)(F)F)cc1)c1cncnc1` (configuration not stated): the logD turned out to be 3.34. For `COc1cc(OC)n2nc(S(=O)(=O)Nc3c(Cl)ccc(C)c3Cl)nc2n1`, the pH-dependent lipophilicity (logD) amounted to 2.46. On the same count and under the same terms, the result for `CCOC(=O)CCN(SN(C)C(=O)Oc1cccc2c1OC(C)(C)C2)C(C)C` reads 4.3.

The data set is the same for the next values; noted with them: pH 7.3.
On to `O=C(Nc1ccccc1)Nc1cnns1`, for which the logD was 1.77.
